Assay results reported in the supplement of paper PMC11061612.

Experiments:
[1] = compound: C=CCn1c(=O)c2cnc(Nc3ccc(N4CCN(C)CC4)cc3)nc2n1-c1cccc(C(C)(C)O)n1 [AZD1775]; conditions: max 3 µM
Summary of the method: (§1)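 Cancer cell lines in 1536-well plates (7.5 μl DMEM/F12 or RPMI, 10% FBS) were held 24 hours at 37°C and 5% CO2 and then dosed for 72 hours at a final DMSO of typically 0.2%. Viability was taken from CellTiter-Glo 2.0 luminescence, scaled between blank-well and DMSO-well means. Curves were fitted as two-parameter logistic models with a non-linear mixed effects model, from which the single-agent IC50 was taken.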

[2] = compound: COc1cc2ncnc(Nc3ccc(F)c(Cl)c3)c2cc1OCCCN1CCOCC1 [Gefitinib]; conditions: max 10 µM
Summary of the method: as §1

[3] = compound: CN(CC[C@H](CSC1=CC=CC=C1)NC2=C(C=C(C=C2)S(=O)(=O)NC(=O)C3=CC=C(C=C3)N4CCC(CC4)[C@H](C5=CC=CC=C5C6=CC=C(C=C6)Cl)O)S(=O)(=O)C(F)(F)F)CCO [AZD4320]; conditions: max 1 µM
Summary of the method: as §1

[4] = compound: CC1=CN2[C@@H](C1)C=NC3=CC(=C(C=C3C2=O)OC)OCCCCCOC4=C(C=C5C(=C4)N=C[C@@H]6CC(=CN6C5=O)C)OC [SG3199]; conditions: max 0.001 µM
Summary of the method: as §1

[5] = compound: COc1cccc(OCCCN)c1-c1cc(Nc2cnc(C#N)cn2)n[nH]1 [Prexasertib]; conditions: max 1 µM
Summary of the method: as §1

[6] = compound: C[C@@H](Oc1cc(-c2cnn(C3CCNCC3)c2)cnc1N)c1c(Cl)ccc(F)c1Cl [Crizotinib]; conditions: max 10 µM
Summary of the method: as §1

[7] = compound: COc1cccc2c1C(=O)c1c(O)c3c(c(O)c1C2=O)C[C@@](O)(C(=O)CO)C[C@@H]3O[C@H]1C[C@H](N)[C@H](O)[C@H](C)O1 [Doxorubicin]; conditions: max 1 µM
Summary of the method: as §1

[8] = compound: CC1=C(C(=CC=C1)Cl)NC(=O)C2=CN=C(S2)NC3=CC(=NC(=N3)C)N4CCN(CC4)CCO [Dasatinib]; conditions: max 2 µM
Summary of the method: as §1

[9] = compound: C[C@@H]1COCCN1C2=NC(=NC(=C2)C3(CC3)[S@](=N)(=O)C)C4=C5C=CNC5=NC=C4 [AZD6738]; conditions: max 10 µM
Summary of the method: as §1

[10] = compound: Cn1cnc2c(F)c(Nc3ccc(Br)cc3Cl)c(C(=O)NOCCO)cc21 [Selumetinib]; conditions: max 10 µM
Summary of the method: as §1

[11] = compound: CS(=O)(=O)CCNCc1ccc(-c2ccc3ncnc(Nc4ccc(OCc5cccc(F)c5)c(Cl)c4)c3c2)o1 [Lapatinib]; conditions: max 10 µM
Summary of the method: as §1

[12] = compound: C[C@@H](c1ccc2nccn2c1)n1nnc2ncc(-c3cnn(C)c3)nc21 [Savolitinib]; conditions: max 1 µM
Summary of the method: as §1

[13] = compound: Cc1nc(-c2cn3c(n2)-c2ccc(-c4cnn(C(C)(C)C(N)=O)c4)cc2OCC3)n(C(C)C)n1 [Taselisib]; conditions: max 10 µM
Summary of the method: as §1

[14] = compound: CC1(C)CCC(CN2CCN(c3ccc(C(=O)NS(=O)(=O)c4ccc(NCC5CCOCC5)c([N+](=O)[O-])c4)c(Oc4cnc5[nH]ccc5c4)c3)CC2)=C(c2ccc(Cl)cc2)C1 [Venetoclax]; conditions: max 1 µM
Summary of the method: as §1

[15] = compound: Cc1c2c(nn1C)CSCc1cc(n(C)n1)CSc1cc(c3ccccc3c1)OCCCc1c(C(=O)O)n(C)c3c-2c(Cl)ccc13 [AZD5991]; conditions: max 1 µM
Summary of the method: as §1

[16] = compound: CC(C)n1c(=O)n(C)c2cnc3cc(F)c(-c4ccc(OCCCN5CCCCC5)nc4)cc3c21 [AZD1390]; conditions: max 0.3 µM
Summary of the method: as §1

[17] = compound: CCN(CCO)CCCOc1ccc2c(Nc3cc(CC(=O)Nc4cccc(F)c4)[nH]n3)ncnc2c1 [AZD2811]; conditions: max 1 µM
Summary of the method: as §1

[18] = compound: CN(C)CCCOc1ccc(-c2ccc3ncc4c(c3c2)n(C2CCOCC2)c(=O)n4C)cn1 [AZD0156]; conditions: max 3 µM
Summary of the method: as §1

[19] = compound: CCc1c2c(nc3ccc(O)cc13)-c1cc3c(c(=O)n1C2)COC(=O)[C@]3(O)CC [SN-38]; conditions: max 0.3 µM
Summary of the method: as §1

[20] = compound: CC(=O)c1c(C)c2cnc(Nc3ccc(N4CCNCC4)cn3)nc2n(C2CCCC2)c1=O [Palbociclib]; conditions: max 10 µM
Summary of the method: as §1

[21] = compound: COc1cc(Nc2ncc3c(n2)-c2ccc(Cl)cc2C(c2c(F)cccc2OC)=NC3)ccc1C(=O)O [Alisertib]; conditions: max 10 µM
Summary of the method: as §1

[22] = compound: C[C@@H](Nc1cc(F)cc(F)c1)c1cc(C(=O)N(C)C)cc2c(=O)cc(N3CCOCC3)oc12 [AZD8186]; conditions: max 3 µM
Summary of the method: as §1

[23] = compound: O=C(c1cc(Cc2n[nH]c(=O)c3ccccc23)ccc1F)N1CCN(C(=O)C2CC2)CC1 [Olaparib]; conditions: max 10 µM
Summary of the method: as §1

[24] = compound: CC(=O)Nc1cccc(-n2c(=O)n(C3CC3)c(=O)c3c(Nc4ccc(I)cc4F)n(C)c(=O)c(C)c32)c1 [Trametinib]; conditions: max 1 µM
Summary of the method: as §1

[25] = compound: COc1nnc2ccc(N3CCC(c4ccc(OCCN5CCN(C)C(=O)[C@H]5C)cc4)CC3)nn12 [AZD5153]; conditions: max 1 µM
Summary of the method: as §1

[26] = compound: NC1(c2ccc(-c3nc4ccn5c(=O)[nH]nc5c4cc3-c3ccccc3)cc2)CCC1 [MK-2206]; conditions: max 10 µM
Summary of the method: as §1

[27] = compound: C1CN(CCC1(C(=O)N[C@@H](CCO)C2=CC=C(C=C2)Cl)N)C3=NC=NC4=C3C=CN4 [Capivasertib]; conditions: max 10 µM
Summary of the method: as §1

[28] = compound: Cc1cc2ncnn2cc1Nc1ncc2c(n1)n(C1CCOCC1)c(=O)n2C [AZD7648]; conditions: max 10 µM
Summary of the method: as §1

| Cell Line | IC50, cell viability 72 h [1] | IC50, cell viability 72 h [2] | IC50, cell viability 72 h [3] | IC50, cell viability 72 h [4] | IC50, cell viability 72 h [5] | IC50, cell viability 72 h [6] | IC50, cell viability 72 h [7] | IC50, cell viability 72 h [8] | IC50, cell viability 72 h [9] | IC50, cell viability 72 h [10] | IC50, cell viability 72 h [11] | IC50, cell viability 72 h [12] | IC50, cell viability 72 h [13] | IC50, cell viability 72 h [14] | IC50, cell viability 72 h [15] | IC50, cell viability 72 h [16] | IC50, cell viability 72 h [17] | IC50, cell viability 72 h [18] | IC50, cell viability 72 h [19] | IC50, cell viability 72 h [20] | IC50, cell viability 72 h [21] | IC50, cell viability 72 h [22] | IC50, cell viability 72 h [23] | IC50, cell viability 72 h [24] | IC50, cell viability 72 h [25] | IC50, cell viability 72 h [26] | IC50, cell viability 72 h [27] | IC50, cell viability 72 h [28] |
| --- | --- | --- | --- | --- | --- | --- | --- | --- | --- | --- | --- | --- | --- | --- | --- | --- | --- | --- | --- | --- | --- | --- | --- | --- | --- | --- | --- | --- |
| COLO-829 (Melanoma) | > 3000 nM | > 10000 nM | > 1000 nM | > 1 nM | > 1000 nM | > 10000 nM | > 1000 nM | 598 nM | > 10000 nM | 8420 nM | > 10000 nM | > 1000 nM | > 10000 nM | > 1000 nM | > 1000 nM | > 300 nM | > 1000 nM | > 3000 nM | > 300 nM | > 10000 nM | > 10000 nM | > 3000 nM | > 10000 nM | 279 nM | > 1000 nM | > 10000 nM | > 10000 nM | > 10000 nM |
| NCI-H747 (Colorectal Carcinoma) | 2510 nM | > 10000 nM | > 1000 nM | > 1 nM | > 1000 nM | > 10000 nM | > 1000 nM | 542 nM | > 10000 nM | 309 nM | > 10000 nM | > 1000 nM | 2380 nM | > 1000 nM | > 1000 nM | > 300 nM | > 1000 nM | > 3000 nM | > 300 nM | > 10000 nM | > 10000 nM | > 3000 nM | > 10000 nM | 5.4 nM | 101 nM | 2200 nM | 4660 nM | > 10000 nM |
| UMC-11 (Other Solid Carcinomas) | > 3000 nM | > 10000 nM | > 1000 nM | > 1 nM | 57.5 nM | 5910 nM | > 1000 nM | > 2000 nM | > 10000 nM | > 10000 nM | > 10000 nM | > 1000 nM | > 10000 nM | > 1000 nM | > 1000 nM | > 300 nM | 103 nM | > 3000 nM | > 300 nM | > 10000 nM | 1210 nM | > 3000 nM | > 10000 nM | > 1000 nM | 289 nM | – | > 10000 nM | > 10000 nM |
